In brackets after ≈: the same amount, converted by molar mass. Where two headings read alike, the source gives them in different places.
Experiments:
[1] = as measured at 25° C.; for a monocarboxylic acid pKa1 is the pKa; cited from earlier work
[2] = Dynamic vapour sorption (DVS); format: physicochemical; conditions: for hygroscopicity: DVS up to 90% RH; for solid form after DVS (XRPD): post-DVS; for DVS mass uptake / DVS mass uptake as equivalents of water: at 90% RH, 25° C.
Method: Approximately 10-20 mg of sample was placed into a mesh vapour sorption balance pan and loaded into an Intrinsic dynamic vapour sorption balance by Surface Measurement Systems. The sample was subjected to a ramping profile from 40-90% relative humidity (RH) at 10% increments, maintaining the sample at each step until a stable weight had been achieved (dm/dt 0.004%, minimum step length 30 minutes, maximum step length 500 minutes) at 25° C. After completion of the sorption cycle, the sample was dried using the same procedure to 0% RH and then a second sorption cycle back to 40% RH. Two cycles were performed. The weight change during the sorption/desorption cycles were plotted, allowing for the hygroscopic nature of the sample to be determined. XRPD analysis was then carried out on any solid retained.

Thermodynamic solubility = conditions: unbuffered water, thermodynamic from solid

Row | SMILES | pKa1 [1] | solid form after DVS (XRPD) [2] | DVS mass uptake [2] [wt. %] | DVS mass uptake as equivalents of water [2] [eq. water] | also measured
1 | O=C(O)c1ccc2ccccc2c1 [2-naphthoic acid] | 4.16 |  |  |  | 
2 | O=C(O)CCCC(=O)O [glutaric acid] | 4.34 |  |  |  | 
3 | CC(C)NC[C@H](O)COc1cccc2[nH]ccc12.O=C(O)c1ccccc1 [S-pindolol benzoate Pattern 2, S-pindolol benzoate] |  | Pattern 2 retained, organic solvent |  |  | Thermodynamic solubility, free base concentration (pH 1.2): 23.5 mg/mL; solid form after thermodynamic solubility experiment (pH 1.2): Salt disproportionated.; Thermodynamic solubility, free base concentration (pH 4.5): 17.6 mg/mL; solid form after thermodynamic solubility experiment (pH 4.5): Pattern 2 retained.; Thermodynamic solubility, free base concentration (pH 6.8): 9.9 mg/mL; solid form after thermodynamic solubility experiment (pH 6.8): Pattern 2 retained.; hygroscopicity [2]: non-hygroscopic
4 | CC(C)NC[C@H](O)COc1cccc2[nH]ccc12 [S-pindolol free base, (2S)-1-(1H-indol-4-yloxy)-3-(propan-2-ylamino)propan-2-ol, reference compound] |  | remained unchanged | 0.36 | 0.05 | solubility thermodynamic (Thermodynamic solubility): 1.8 mg/mL (≈ 7.25 mM); hygroscopicity [2]: slightly hygroscopic
5 | CC(C)NC[C@H](O)COc1cccc2[nH]ccc12.O=C(O)c1ccccc1 [S-pindolol benzoate Pattern 1, S-pindolol benzoate] |  | Pattern 1 retained, mass uptake | 0.23 | 0.05 | Thermodynamic solubility, free base concentration (pH 1.2): 29.9 mg/mL; solid form after thermodynamic solubility experiment (pH 1.2): Converted to amorphous.; Thermodynamic solubility, free base concentration (pH 4.5): 20.1 mg/mL; solid form after thermodynamic solubility experiment (pH 4.5): Converted to amorphous.; Thermodynamic solubility, free base concentration (pH 6.8): 17.4 mg/mL; solid form after thermodynamic solubility experiment (pH 6.8): Pattern 1 retained.
6 | Cc1ccccc1C(=O)O [toluic acid] | 4-5 |  |  |  | 
7 | O=C(O)Cc1ccccc1 [phenylacetic acid] | 4.31 |  |  |  | 
8 | O=C(O)[C@@H](O)c1ccccc1 [S-(+)-mandelic acid] | 3.37 |  |  |  | 
9 | CC(C)NC[C@H](O)COc1cccc2[nH]ccc12.O=C(O)CCC(=O)O [S-pindolol succinate Pattern 1, S-pindolol succinate] |  | retained | 0.70 | 0.14 | 
10 | O=C(O)c1cccc2ccccc12 [1-naphthoic acid] | 3.67 |  |  |  | 
